Patent publication US7452865B2, “Antagonistic analogs of GH RH (2003)” (The Administrare's of the Tulane Educational Fund, priority 2004, dated 2008)
Marks after values point to notes of the source that are not given here. Square brackets hold non-standard residues; d marks the D form. Peptide text beside a SMILES is read from it. * marks the point of attachment. Phe(4-amidino) = N=C(N)c1ccc(C[C@H](N)C(=O)O)cc1; Phe(4-Cl) = N[C@@H](Cc1ccc(Cl)cc1)C(=O)O; hArg = N=C(N)NCCCC[C@H](N)C(=O)O; Nle = CCCC[C@H](N)C(=O)O; Abu = CC[C@H](N)C(=O)O; PhAc = O=C(Cc1ccccc1)*

Key:
[1] = tested on: GH-RH receptor isoforms on membrane fractions of human PC-3 prostate tumors; format: binding; details: general statement
Outline: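 Competitive displacement of [^125I]JV-1-42 from crude membranes of human PC-3 prostate tumours grown as nude-mouse xenografts, with unlabelled peptides at 10^−12 to 10^−6 M. Bound radioactivity in the centrifuged pellet gamma-counted; Ki from Munson–Rodbard analysis. Relative affinity = Ki of reference peptide (JV-1-36 or JV-1-38) / Ki of test antagonist.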

[2] = tested on: PC-3 human prostate cancer xenografts; assay: PC-3 xenografts in nude mice, Experiment 1: tumor growth; format: in vivo
Protocol: (§1) Male nude mice were implanted s.c. with 3 mm^3 pieces of PC-3 human hormone-independent prostate cancer tissue on both flanks. When tumors reached a volume of approx. 50 mm^3, the mice were divided into 5 experimental groups with 7 to 8 animals in each group and received single daily injections for 28 days as follows: 1. Control (vehicle solution); 2. JV-1-38 (10 μg/day s.c.); 3 Peptide 31 (10 μg/day s.c.); 4. Peptide 67 (10 μg/day s.c.); 5. Peptide 62 (10 μg/day s.c.). Tumor volumes were measured twice a week. The experiment was ended on day 29 by sacrificing the mice under Isoflurane anesthesia. Resulting tumors were cleaned, weighed, and snap-frozen until further analyses. Trunk blood was collected from the abdominal aorta and serum was separated for RIA measurement of IGF-I. Statistical analyses of the measurement results were done by two-tailed t-test; data are presented as the means±S.E.

[3] = tested on: IGF-I; assay: PC-3 xenografts, Experiment 1: serum IGF-I (RIA); format: in vivo, nude mice; details: 10 μg/day s.c., 28 days
Text: (§2) For the measurement of GH and IGF-I levels in the serum, as well as IGF-I and IGF-II concentrations in the cytosol fraction of tumors, blood samples and tumor samples were collected and processed as described (Braczkowski R, Schally A V, Plonowski A, Varga J L, Groot K, Krupa M, Armatis P, Cancer 95: 1735-1745, 2002), hereby incorporated by reference. Briefly, blood samples are centrifuged to separate the serum, tumors are homogenized and centrifuged to separate the cytosol fraction. Serum GH is then measured by the double-antibody RIA method. Before measurement by RIA, IGF-I and IGF-II are extracted from serum and cytosol fractions using an acid-ethanol cryoprecipitation method that eliminates most of the IGF binding proteins, which can interfere with the RIA. IGF-I concentration is measured by RIA using IGF-I as a standard and goat anti-IGF-I antibody (both from DSL Inc., Webster, Tex.). IGF-II concentration is measured by RIA using human recombinant IGF-II (Bachem) as a standard and anti-IGF-II monoclonal antibody (Amano International Enzyme, Troy, Va.).
as §1

[4] = tested on: HT-29 human colon cancer xenografts; assay: HT-29 human colon cancer xenografts in nude mice: tumor growth; format: in vivo; details: 10 μg/day s.c., 62 days
Protocol: HT-29 human colon cancers were transplanted sc. into male nude mice. 19 days after transplantation, the mice were divided into two groups of 10 animals each. and the treatment was started. Mice in the treatment group received single daily injections of Peptide 67 sc. at a dose of 10 μg/day for 62 days, while the control group was injected with the vehicle solvent. Tumors were measured regularly, and tumor volume was calculated. The mice were sacrificed at the end of experiment and tumor weights were measured.

[5] = tested on: DMS-153 human SCLC xenografts; assay: DMS-153 human SCLC xenografts in nude mice: tumor growth; format: in vivo
Protocol: (§3) Male nude mice were implanted s.c. with 3 mm^3 pieces of DMS-153 human SCLC tissue. When tumors reached a volume of approx. 100 mm^3 the mice were divided into 3 experimental groups of 68 animals each and received the following treatment for 6 weeks group 1 (control), vehicle solution; group 2, Peptide 67 (10 μg/day s.c.); group 3, Peptide 31 (10 μg/day s.c.). Tumor volumes were recorded twice a week. At the end of treatment, mice were anesthetized with isoflurane, killed by decapitation, trunk blood was collected for measurement of serum IGF-I, and tumors were excised and weighed. Data are presented as means±S.E. Data were evaluated by one way ANOVA and the Student-Newman-Keuls test.

[6] = tested on: IGF-I; assay: DMS-153 human SCLC xenografts: serum IGF-I; format: in vivo, nude mice; details: 10 μg/day s.c., 6 weeks
Text: as §2, §3

[7] = tested on: mRNA for IGF-II; assay: DMS-153 human SCLC xenografts: expression of mRNA for IGF-II; format: in vivo, nude mice; details: 10 μg/day s.c., 6 weeks, control group 100±1.5%
Protocol: as §3

[8] = tested on: H-69 human SCLC xenografts; assay: H-69 human SCLC xenografts in nude mice: tumor growth; format: in vivo; details: H-69
Protocol: Male nude mice were implanted s.c. with 3 mm^3 pieces of H-69 human SCLC tissue. When tumors reached a volume of approx. 80 mm^3 the mice were divided into 4 experimental groups of 7-8 animals each and received the following treatment for 4 weeks: group I (control), vehicle solution; group 2, Peptide 67 (10 μg/day s.c.); group 3, Peptide 31 (10 μg/day s.c.); group 4, Peptide 72 (10 μg/day s.c.). Tumor volumes were recorded twice a week. At the end of treatment, mice were anesthetized with isoflurane, killed by decapitation, and tumors were excised and weighed. Data are presented as means±S.E. Data were evaluated by one way ANOVA and the Student-Newman-Keuls test.

[9] = 10 μg/day s.c., 28 days, vs control
[10] = 10 μg/day s.c., 6 weeks, vs control

Question: What does the source list for `CCCC[C@H](NC(=O)[C@@H](NC(=O)[C@H](CC(=O)O)NC(=O)[C@H](CCC(N)=O)NC(=O)[C@H](CC(C)C)NC(=O)[C@H](CC(C)C)NC(=O)[C@H](CCCCN)NC(=O)[C@H](CCCNC(=N)N)NC(=O)[C@H](C)NC(=O)[C@H](CO)NC(=O)[C@H](CC(C)C)NC(=O)[C@H](CCC(N)=O)NC(=O)[C@H](CC)NC(=O)[C@H](CC(C)C)NC(=O)[C@@H](NC(=O)[C@H](CCCCN)NC(=O)[C@H](CCCNC(=N)N)NC(=O)[C@H](Cc1ccc(OC)cc1)NC(=O)[C@H](Cc1ccc(C(=N)N)cc1)NC(=O)[C@H](CC(N)=O)NC(=O)[C@@H](NC(=O)[C@H](Cc1ccc(Cl)cc1)NC(=O)[C@@H](NC(=O)[C@H](C)NC(=O)[C@H](CC(=O)O)NC(=O)[C@@H](CCCNC(=N)N)NC(=O)[C@H](Cc1ccc(O)cc1)NC(=O)Cc1ccccc1)[C@@H](C)CC)[C@@H](C)O)C(C)C)[C@@H](C)CC)C(=O)N[C@H](CCCNC(=N)N)C(=O)N[C@@H](CCCCNC(=N)N)C(N)=O` [Peptide 67, [PhAc-Tyr^1, D-Arg^2, Phe(pCl)^6, Amp^9, Tyr(Me)^10, Abu^15, Nle^27, D-Arg^28, Har^29]hGH-RH(1-29)NH2] (PhAc-Y[dR]DAI[Phe(4-Cl)]TN[Phe(4-amidino)]Y(Me)RKVL[Abu]QLSARKLLQDI[Nle][dR][hArg]-NH2)?
Answer: binding affinities to the tumoral receptors for GH-RH (in words) [1]: extremely high binding affinities; Tumor volume (mm^3) Final ([2]; 10 μg/day s.c., 28 days): 200 ± 39.5* mm^3; Tumor volume doubling time ([2]; 10 μg/day s.c., 28 days): 17.0 ± 3.51 days; Tumor weight ([2]; 10 μg/day s.c., 28 days): 150 ± 22.1 mg; Tumor volume Final (% inhibition) [2, 9]: (60%); Tumor weight (% inhibition) [2, 9]: (60%); inhibitory effect on the growth of PC-3 tumors (in words) ([2]; 10 μg/day s.c., compared with JV-1-38): stronger inhibitory effect on the growth of PC-3 tumors than the reference peptide JV-1-38; Tumor volume (mm^3) Initial ([2]; at start of treatment): 46.8 ± 8.11 mm^3; Serum IGF-I [3]: 128 ± 10.6 ng/mL; Serum IGF-I (% inhibition) ([3]; vs control): (14%); Final tumor volume (mm^3) [4]: 1218 ± 320* mm^3; Tumor weight [4]: 1434 ± 405 mg; inhibition in the volumes of HT-29 tumors ([4]; vs control group): 56.3%; inhibition in the weights of HT-29 tumors ([4]; vs control group): 53.9%; Tumor volume (mm^3) Final ([5]; 10 μg/day s.c., 6 weeks): 2650 ± 30* mm^3; Tumor weight ([5]; 10 μg/day s.c., 6 weeks): 1.60 ± 0.19 g; Tumor volume Final (% inhibition) [5, 10]: (28%); Tumor weight (% inhibition) [5, 10]: (31%); Tumor volume (mm^3) Initial ([5]; at start of treatment): 132 ± 24 mm^3; Serum IGF-I [6]: 117.9 ± 17.2 ng/mL; Serum IGF-I (% inhibition) ([6]; vs control): (30%); level of expression of mRNA for IGF-II [7]: 78.0±44.3%; Tumor volume (mm^3) Final ([8]; 10 μg/day s.c., 4 weeks): 501 ± 35* mm^3; Tumor volume Final (% inhibition) ([8]; 10 μg/day s.c., 4 weeks, vs control): (76%); Tumor volume (mm^3) Initial ([8]; at start of treatment): 82 ± 10 mm^3
